Key:
[1] = LC/MS-MS quantification in mouse blood after topical application; type: in vivo
[2] = tested on: basal cell carcinoma (BCC), squamous cell carcinoma (SCC) and melanoma tumors; assay: In vivo fluorescence imaging of skin tumors after systemic (retro-orbital) injection of the probe; design: species or system mouse
From the text: Imaging agents based on the well-characterized COX-2 inhibitors can be used for the early detection of skin cancer and help define tumor margins. […] A continuing problem is the detection of small tumors that are indistinguishable over non-specific background fluorescence.
FIGS. 1A and 1B illustrate in vivo detection of Fluorocoxib accumulation in Basal Cell Carcinoma Imaging with CRi Maestro. FIG. 1A: Histology and identification of tumor cell; FIG. 1B: from lesion 3 (arrows).
However, for skin or other epithelial applications, as well as to improve on its TBR on systemic administration, it is desirable to limit the non-specific signal. To overcome this undesirable background fluorescent signal that can mask signals from smaller tumors and other sites having low-level expression of COX-2, the present disclosure provides molecular probes wherein the fluorescent COX-2-specific construct comprises a fluorescent quencher linked to the probe by a cleavable linker. Upon entry into a cell and binding of the Fluorocoxib to COX-2, the quencher can be displaced from the vicinity of the fluorophore by, for example, a cytoplasmic peptidase cleavage of the cleavable linker, allowing the generation of a detectable fluorescent signal. […]
The capability of this probe to detect early stage skin tumors that cannot be detected by visual inspection was investigated. […]

In the case of 5-Rox-D-indomethacin [Fluorocoxib A], the “level in mouse blood” value [1] is reported as “undetectable”, the “size of small tumors visualized” value ([2]; genetically engineered mouse model of non-melanoma skin cancer, systemic administration, 1 mg/kg) is reported as “approximately 100 μm” and the “fluorescence detection in tumor areas” value ([2]; three hours after retro-orbital injection, in vivo imaging and tissue histology) is reported as “selectively detected”.

Reference: patent publication US9283289B2, “Self-quenching activatable COX-2-specific multi-modal molecular probes for diagnosis of cancers, inflammation, and immune system disorders” (The Board of Trustees of the Leland Stanford Junior …, priority 2012, dated 2016)
